Reference: patent US20250059156A1, “THERAPEUTIC ALKALOID COMPOUNDS” (Sensorium Therapeutics, Inc., priority 2022, published 2025)

Key:
[1] = in vivo; cited from earlier work
C57/Bl6 mice = experiment: Behavioral evaluation assay (SmartCube test); assay type: in vivo; details: FIG. 1
Method: The CNS-like activity of test compounds after acute intraperitoneal administration was evaluated in naïve C57/Bl6 mice using the SmartCube® test.
Male C57/Bl6 mice from Taconic Laboratories (Germantown, NY) were used. Upon receipt, mice were group-housed in Optimice® ventilated cages with 4 mice per cage. Mice were acclimated to the colony room for at least one week prior to test, and subsequently tested at approximately 8-9 weeks of age. All animals were examined, handled, and weighed prior to initiation of the study to assure adequate health and suitability and to minimize nonspecific stress associated with manipulation. During the course of the study, 12/12 light/dark cycles were maintained. The room temperature was 20-23° C. with a relative humidity maintained between 30-70%. Chow and water were provided ad libitum for the duration of the study.
Test compounds were formulated in 5% Pharmasolve, 30% P3 (1:1:1 PEG200, PEG400, propylene glycol) and 65% saline. […]
For class and subclass analysis, a reference dataset has been built from hundreds of drug doses in multiple drug classes plus a control group. […] Multiple analyses of the data was performed to quantitatively produce independent predictions of drug class, and drug subclass. The behavioral signatures of the test drug were evaluated using these classifiers to predict potential therapeutic utility.

SERT = SERT (Homo sapiens (Human), UniProt P31645); experiment: SERT inhibition assay (Neurotransmitter Transporter Fluorescence assay); assay type: cell-based; details: class symbols; legend in nM/micromolar
Method: SERT inhibition was measured using a Neruotransmitter Transportation Fluorescence assay. Briefly, stable 5HHH cells were prepared in a 384 microwell plate. Compounds were prepared by in assay buffer (20 mM HEPES, 0.1% BSA). The compounds were added to the plated cells and incubated for 30 minutes at 37° C. 25 μL of dye solution (Molecular Devices Neurotransmitter Transporter Uptake Assay Kit) was added per well and incubated for 30 minutes at 37° C. The plates were then read on a plate reader.

PDE4A1A = PDE4A1A (Homo sapiens (Human), UniProt P27815); experiment: PDE4 percent inhibition assay; assay type: biochemical; details: 10 μM
Method: (§1) PDE4 assay kit (BPS Bioscience, San Diego, CA), as described below.
(§2) • 1) Dilute 20 μM FAM-Cyclic-3′, 5′-AMP stock 100-fold with PDE buffer to make a 200 nM solution. Make only sufficient quantity needed for the assay; store remaining 20 μM stock solution in aliquots at −20° C. • 2) Add 25 μl of FAM-Cyclic-3′,5′-AMP (200 nM) to each well designated “Positive Control”, “Test Inhibitor”, and “Substrate Control”. • 3) Add 20 μl of PDE assay buffer to each well designated “Substrate Control” and 45 μl of PDE assay buffer to each well designated “Blank”. • 4) Add 5 μl of inhibitor solution to each well designated “Test Inhibitor”. For the wells labeled “Positive Control”, “Substrate Control” and “Blank”, add 5 μl of the same solution without inhibitor (inhibitor buffer). • 5) Thaw PDE on ice. Upon first thaw, briefly spin tube containing enzyme to recover the full contents of the tube. • 6) Dilute PDE4 in PDE buffer to 7.5 pg/μl (0.15 ng/reaction)*. Initiate reaction by adding 20 μl of PDE4 (7.5 pg/μl) to the wells designated “Positive Control” and “Test Inhibitor.” • 7) Incubate at room temperature for 1 hour.
(§3) • 1) Mix binding agent thoroughly and dilute binding agent 1:100 with binding agent diluent. • 2) Add 100 μl diluted binding agent to each microwell. Incubate at room temperature for 1 hour with slow shaking. • 3) Read the fluorescent polarization of the sample in a microtiter-plate reader equipped for the measurement of fluorescence polarization, capable of excitation at wavelengths ranging from 485±5 nm and detection of emitted light ranging from 528±10 nm. Blank value is subtracted from all other values.
(§4) 100 µM dilutions of the test compounds were prepared in assay buffer (10% DMSO concentration) and 5 μl of the dilution was added to a 50 μl reaction so that the final concentration of DMSO is 1% in all of reactions.
(§5) The enzymatic reactions were conducted at room temperature for 60 minutes in a 50 μl mixture containing PDE assay buffer, 100 nM FAM-cAMP, a PDE enzyme and the test compound.
(§6) After the enzymatic reaction, 100 Is of a binding solution (1:100 dilution of the binding agent with the binding agent diluent) was added to each reaction and the reaction was performed at room temperature for 60 minutes.
(§7) Fluorescence intensity was measured at an excitation of 485 nm and an emission of 528 nm using a Tecan Infinite M1000 microplate reader.

PDE4B2 = PDE4B2 (Homo sapiens (Human), UniProt Q07343); experiment: PDE4 percent inhibition assay; assay type: biochemical; details: 10 μM
Method: as §1, §2, §3, §4, §5, §6, §7

PDE4C1 = PDE4C1 (Homo sapiens (Human), UniProt Q08493); experiment: PDE4 percent inhibition assay; assay type: biochemical; details: 10 μM
Method: as §1, §2, §3, §4, §5, §6, §7

PDE4D2 = PDE4D2 (Homo sapiens (Human), UniProt Q08499); experiment: PDE4 percent inhibition assay; assay type: biochemical; details: 10 μM
Method: as §1, §2, §3, §4, §5, §6, §7

5-HT transporter (SERT) = 5-HT transporter (SERT) (Homo sapiens (Human), UniProt P31645); details: concentration response curve; cited from earlier work

Chain of PDE4C1 (Q08493 whole entry): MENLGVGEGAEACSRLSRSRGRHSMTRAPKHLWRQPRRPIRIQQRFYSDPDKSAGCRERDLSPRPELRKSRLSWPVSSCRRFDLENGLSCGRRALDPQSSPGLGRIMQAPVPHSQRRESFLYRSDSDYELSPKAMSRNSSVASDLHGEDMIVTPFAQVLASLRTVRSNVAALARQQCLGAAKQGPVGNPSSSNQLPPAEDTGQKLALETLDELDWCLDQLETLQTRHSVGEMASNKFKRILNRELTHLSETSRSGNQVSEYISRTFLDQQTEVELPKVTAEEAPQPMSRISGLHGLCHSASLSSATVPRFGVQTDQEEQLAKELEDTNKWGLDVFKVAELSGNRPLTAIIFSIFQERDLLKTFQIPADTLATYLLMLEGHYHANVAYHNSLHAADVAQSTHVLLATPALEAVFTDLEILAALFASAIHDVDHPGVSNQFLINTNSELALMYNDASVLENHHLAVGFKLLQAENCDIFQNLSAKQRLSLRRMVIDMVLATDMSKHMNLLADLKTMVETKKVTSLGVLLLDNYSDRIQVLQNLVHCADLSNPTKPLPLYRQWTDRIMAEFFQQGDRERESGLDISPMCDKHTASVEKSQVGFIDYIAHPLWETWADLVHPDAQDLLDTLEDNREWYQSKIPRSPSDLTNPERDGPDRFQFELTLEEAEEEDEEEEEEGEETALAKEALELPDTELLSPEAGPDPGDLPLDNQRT
Chain of PDE4A1A (P27815 other isoform, or with tags, fused parts or gaps): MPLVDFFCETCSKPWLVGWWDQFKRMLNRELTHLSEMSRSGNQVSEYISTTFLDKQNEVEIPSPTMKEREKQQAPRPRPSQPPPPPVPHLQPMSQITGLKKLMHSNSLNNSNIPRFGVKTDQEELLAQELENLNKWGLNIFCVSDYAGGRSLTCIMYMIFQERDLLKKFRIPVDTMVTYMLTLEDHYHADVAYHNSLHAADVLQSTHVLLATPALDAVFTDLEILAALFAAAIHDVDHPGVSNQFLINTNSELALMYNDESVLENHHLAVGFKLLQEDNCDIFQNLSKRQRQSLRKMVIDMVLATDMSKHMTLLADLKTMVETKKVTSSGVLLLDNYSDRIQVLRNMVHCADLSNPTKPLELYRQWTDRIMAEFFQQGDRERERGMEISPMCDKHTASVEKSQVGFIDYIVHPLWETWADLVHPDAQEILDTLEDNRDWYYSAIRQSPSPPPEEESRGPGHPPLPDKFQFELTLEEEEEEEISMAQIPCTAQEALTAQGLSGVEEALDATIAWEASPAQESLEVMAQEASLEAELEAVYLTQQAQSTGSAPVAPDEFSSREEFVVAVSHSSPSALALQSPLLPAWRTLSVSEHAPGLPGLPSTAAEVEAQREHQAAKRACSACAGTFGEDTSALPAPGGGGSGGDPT
Chain of SERT (P31645 whole entry, species assumed): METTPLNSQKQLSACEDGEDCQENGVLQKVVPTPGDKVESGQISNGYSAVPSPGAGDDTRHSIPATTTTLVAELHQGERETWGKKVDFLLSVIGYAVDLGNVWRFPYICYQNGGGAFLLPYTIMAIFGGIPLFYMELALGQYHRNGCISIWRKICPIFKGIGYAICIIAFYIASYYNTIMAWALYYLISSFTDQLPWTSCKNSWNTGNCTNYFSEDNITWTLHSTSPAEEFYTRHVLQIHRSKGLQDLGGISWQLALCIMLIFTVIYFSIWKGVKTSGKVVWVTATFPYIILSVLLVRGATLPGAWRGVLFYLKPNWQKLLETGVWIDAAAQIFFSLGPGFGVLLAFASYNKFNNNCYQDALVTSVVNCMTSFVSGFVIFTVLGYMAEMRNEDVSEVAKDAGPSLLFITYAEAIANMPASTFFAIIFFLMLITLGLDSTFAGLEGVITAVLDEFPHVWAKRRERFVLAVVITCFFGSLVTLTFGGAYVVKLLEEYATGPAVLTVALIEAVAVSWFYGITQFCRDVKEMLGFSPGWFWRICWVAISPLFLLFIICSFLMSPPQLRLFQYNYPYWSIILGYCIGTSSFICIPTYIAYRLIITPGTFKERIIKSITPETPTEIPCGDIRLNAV
Chain of PDE4D2 (Q08499 303-809, change not shown): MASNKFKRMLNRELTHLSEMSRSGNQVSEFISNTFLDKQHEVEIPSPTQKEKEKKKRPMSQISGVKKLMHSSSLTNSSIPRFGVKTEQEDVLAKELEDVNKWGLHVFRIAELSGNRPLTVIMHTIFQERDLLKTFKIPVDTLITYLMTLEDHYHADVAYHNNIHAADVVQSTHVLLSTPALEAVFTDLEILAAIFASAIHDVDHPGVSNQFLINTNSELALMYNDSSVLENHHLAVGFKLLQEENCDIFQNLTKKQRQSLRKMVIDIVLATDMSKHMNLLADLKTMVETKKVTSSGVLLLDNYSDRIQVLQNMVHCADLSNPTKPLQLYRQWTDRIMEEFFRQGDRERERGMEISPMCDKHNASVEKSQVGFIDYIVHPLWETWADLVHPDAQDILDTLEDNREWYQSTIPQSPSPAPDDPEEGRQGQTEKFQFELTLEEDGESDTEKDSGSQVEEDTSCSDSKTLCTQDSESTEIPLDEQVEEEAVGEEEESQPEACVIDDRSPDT
Chain of PDE4B2 (Q07343 other isoform, or with tags, fused parts or gaps): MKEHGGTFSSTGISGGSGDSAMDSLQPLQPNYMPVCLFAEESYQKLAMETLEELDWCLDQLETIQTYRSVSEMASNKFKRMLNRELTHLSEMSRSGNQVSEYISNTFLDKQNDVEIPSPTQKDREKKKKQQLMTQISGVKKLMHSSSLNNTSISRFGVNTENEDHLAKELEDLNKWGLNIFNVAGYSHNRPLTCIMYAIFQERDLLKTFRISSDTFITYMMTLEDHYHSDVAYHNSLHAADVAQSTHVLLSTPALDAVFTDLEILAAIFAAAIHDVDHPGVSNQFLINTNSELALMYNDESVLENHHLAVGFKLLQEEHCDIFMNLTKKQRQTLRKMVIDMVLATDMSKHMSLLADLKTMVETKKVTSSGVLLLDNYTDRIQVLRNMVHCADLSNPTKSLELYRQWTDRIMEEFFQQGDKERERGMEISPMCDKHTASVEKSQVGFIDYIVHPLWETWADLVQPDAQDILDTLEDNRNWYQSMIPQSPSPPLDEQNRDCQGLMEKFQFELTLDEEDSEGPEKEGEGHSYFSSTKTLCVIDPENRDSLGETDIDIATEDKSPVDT

| Compound | half-life in plasma [1] | behavioral phenotype compared to Compound 001 (C57/Bl6 mice) | IC50 (SERT) | PDE4 Isoform % Inhibition @ 10 μM PDE4A1A (PDE4A1A) | PDE4 Isoform % Inhibition @ 10 μM PDE4B2 (PDE4B2) | PDE4 Isoform % Inhibition @ 10 μM PDE4C1 (PDE4C1) | PDE4 Isoform % Inhibition @ 10 μM PDE4D2 (PDE4D2) | 5-HT transporter (SERT) nH (5-HT transporter (SERT)) |
| --- | --- | --- | --- | --- | --- | --- | --- | --- |
| COc1ccc([C@@]23CCC(=O)C[C@@H]2N(C)CC3)cc1OC [(−) mesembrine] | less than 2 hours |  |  |  |  |  |  |  |
| COc1ccc([C@@]23CC[C@@H](O)C[C@@H]2N(C)CC3)cc1OC [Compound 018, (3aS,6R,7aS)-3a-(3,4-dimethoxyphenyl)-1-methyloctahydro-1H-indol-6-ol] |  | different behavioral phenotype classification |  |  |  |  |  |  |
| COc1ccc([C@]23CCN(C)[C@H]2CC(=O)[C@H]2O[C@H]23)cc1OC [Compound 209] |  |  | < 50 nM | A (A if the % inhibition is greater than or equal to 70%) | A (A if the % inhibition is greater than or equal to 70%) | A (A if the % inhibition is greater than or equal to 70%) | A (A if the % inhibition is greater than or equal to 70%) |  |
| COc1ccc([C@@]23CCN(C)[C@@H]2CC(=O)[C@@H]2O[C@@H]23)cc1OC [Compound 210] |  |  | 100 to 500 nM | A (A if the % inhibition is greater than or equal to 70%) | A (A if the % inhibition is greater than or equal to 70%) | A (A if the % inhibition is greater than or equal to 70%) | A (A if the % inhibition is greater than or equal to 70%) |  |
| COc1ccc([C@]23CCN(C)[C@H]2[C@@H]2C[C@H]3CC2=O)cc1OC [Compound 213] |  |  | > 1000 nM | A (A if the % inhibition is greater than or equal to 70%) | A (A if the % inhibition is greater than or equal to 70%) | A (A if the % inhibition is greater than or equal to 70%) | A (A if the % inhibition is greater than or equal to 70%) |  |
| COc1ccc([C@@]23CCN(C)[C@@H]2[C@H]2C[C@@H]3CC2=O)cc1OC [Compound 214] |  |  | 100 to 500 nM | A (A if the % inhibition is greater than or equal to 70%) | C (C is the percent inhibition is 30-50%) | D (D if the percent inhibition is less than 30%) | C (C is the percent inhibition is 30-50%) |  |
| COc1ccc([C@]23CCN(C)[C@H]2[C@H]2C[C@@H]3CC2=O)cc1OC [Compound 215] |  |  | 50 to 100 nM | D (D if the percent inhibition is less than 30%) | D (D if the percent inhibition is less than 30%) | D (D if the percent inhibition is less than 30%) | D (D if the percent inhibition is less than 30%) |  |
| COc1ccc([C@@]23CCN(C)[C@@H]2[C@@H]2C[C@H]3CC2=O)cc1OC [Compound 216] |  |  | 50 to 100 nM | D (D if the percent inhibition is less than 30%) | D (D if the percent inhibition is less than 30%) | C (C is the percent inhibition is 30-50%) | D (D if the percent inhibition is less than 30%) |  |
| COc1ccc([C@]23CCN(C)[C@H]2[C@@H]2CCC[C@H]3CC2=O)cc1OC [Compound 218] |  |  | < 50 nM | D (D if the percent inhibition is less than 30%) | D (D if the percent inhibition is less than 30%) | D (D if the percent inhibition is less than 30%) | D (D if the percent inhibition is less than 30%) |  |
| COc1ccc([C@@]23CCN(C)[C@@H]2[C@H]2CCC[C@@H]3CC2=O)cc1OC [Compound 219] |  |  | 100 to 500 nM | C (C is the percent inhibition is 30-50%) | C (C is the percent inhibition is 30-50%) | B (B if the percent inhibition is 50-70%) | C (C is the percent inhibition is 30-50%) |  |
| COc1ccc([C@@]23C=CC(=O)C[C@@H]2N(C)CC3)cc1OC [Mesembrenone] |  |  |  |  |  |  |  | 1.0 |
